Source: patent US20260217701A1, “SELECTIVE BET INHIBITORS AND USES THEREOF” (Tay Therapeutics Limited, priority 2022, published 2026)
Several values for one entry are separate records, joined by “and”; a condition that tells them apart may be missing. Identical values can stand only once.

System: imiquimod-induced psoriasis
Experiment: Imiquimod-induced psoriasis model
Assay type: in vivo, mice
Parameters: Spleen Weight / Spleen Weight Ratio: unit not given here
Settings: for PASI Scores: IMI + Apremilast 3 mg/kg; for Mean scores of the presence of erythema on the skin of animals at the area of induction of psoriasis / Mean scores of the presence of induration on the skin of animals at the area of induction of psoriasis / Mean scores of the presence of peeling on the skin of animals at the area of induction of psoriasis: mean ± SEM
Source text: Imiquimod-induced psoriasis is a model of psoriasis in mice that induces psoriasis-like dermatitis. The pathology closes resembles human plaque-type psoriasis and is a valuable tool for testing new therapies against psoriasis. […] Compound A was formulated in a 5% DMSO/40% PEG-400/55% (0.9% NaCl w/v water) solution (Table 2F). Experimental groups for the study are outlined in Table 4. Prior to study initiation, the backs of all animals in the study were depilated to allow for induction of psoriasis and monitoring of disease progression.
Once assigned to experimental groups, on Day 1 and continuing through Day 14, topical imiquimod (IMI; Aldara™ containing 5% Imiquimod) was administered to the dorsal depilated animals, and animals in group 1 received topical administration of Excipial® hydrocream (65 mg). […] Clobetasol was applied topically for animals in group 11.
Body weights were recorded three times a week from Day 1 to Day 8, and daily from Day 8 until the study end at Day 15. At termination on D15 the spleen weight ratio was determined. Disease severity was assessed using the psoriasis area severity index (PASI) daily from Day 8 until study completion on Day 15. The PASI score was calculated based on three parameters (presence of erythema, induration of the skin, and peeling of the skin at the area of induction) on a scale of 0 to 4 (0=no more or absence, 1=low, 2=moderate, 3=high, 4=severe). The PASI score for each animal was calculated as the sum of the score of each parameter measured. The score of the use of enrichment (SUE) was also assessed daily from Day 8 to Day 15. At study completion on Day 15, animal behavior was evaluated using an open field to assess distance travelled, number scratching, and licking and rearing performed in 10 minutes. Upon study termination animals were sacrificed, the spleen was excised and weighed, and blood samples were collected. Serum was isolated from the blood sample for cytokine and other biomarker analysis. IL-1B, IL-6, IL-17, and TNF-α assayed using simple plex technique on an ELLA automated immunoassay system. IL-22 and IL-23 were assayed by ELISA.
The imiquimod-induced model of psoriasis was used to assess the efficacy of Compound A in treating psoriasis. […] Treatment started on Day 8 after induction so reference to day 1 of treatment is to Day 8 and day 7 of treatment is to Day 14.

[1] = IMI-psoriasis model, behavioral evaluation D15, 3 mg/kg, individual animals
[2] = IMI-psoriasis model, behavioral evaluation, 3 mg/kg, individual animals
[3] = IMI-psoriasis model, mice, 3 mg/kg, individual animals
[4] = IMI + 3 mg/kg, D8 (before start of treatment)

Compound: CCOc1cc([C@@H](CS(C)(=O)=O)N2C(=O)c3cccc(NC(C)=O)c3C2=O)ccc1OC [Apremilast, reference compound]
- Body Weight D1 (IMI + 3 mg/kg, Day 1 (before treatment start on Day 8), individual animals, 3 mg/kg, in g (unit assumed)): 18.04 and 18.00 and 18.05 and 18.89 and 15.16 and 17.91 and 18.62 and 18.72
- Body Weight D3 (IMI + 3 mg/kg, Day 3 (before treatment start on Day 8), individual animals, 3 mg/kg, in g (unit assumed)): 15.91 and 16.38 and 17.39 and 17.17 and 13.24 and 16.46 and 17.63 and 16.03
- Body Weight D5 (IMI + 3 mg/kg, Day 5 (before treatment start on Day 8), individual animals, 3 mg/kg, in g (unit assumed)): 16.70 and 17.24 and 17.88 and 17.91 and 13.95 and 16.38 and 17.65 and 16.94
- Body Weight D7 (IMI + 3 mg/kg, Day 7 (before treatment start on Day 8), individual animals, 3 mg/kg, in g (unit assumed)): 16.55 and 16.74 and 17.25 and 17.69 and 15.07 and 16.92 and 17.97 and 17.32
- Body Weight D8 (IMI + 3 mg/kg, Day 8 (first day of treatment), individual animals, 3 mg/kg, in g (unit assumed)): 16.41 and 16.59 and 17.27 and 17.43 and 13.81 and 17.05 and 17.50 and 16.19
- Body Weight D9 (IMI + 3 mg/kg, Day 9, individual animals, 3 mg/kg): 16.75 and 17.41 (2×) and 17.44 and 17.12 and 13.85 and 17.04 and 16.34
- Body Weight D10 (IMI + 3 mg/kg, Day 10, individual animals, 3 mg/kg, in g (unit assumed)): 17.13 and 17.32 and 17.55 and 17.39 and 13.82 and 17.24 and 17.62 and 17.09
- Body Weight D11 (IMI + 3 mg/kg, Day 11, individual animals, 3 mg/kg, in g (unit assumed)): 16.87 and 17.60 and 17.50 and 17.32 and 14.44 and 17.59 and 17.99 and 17.89
- Body Weight D12 (IMI + 3 mg/kg, Day 12, individual animals, 3 mg/kg, in g (unit assumed)): 17.32 and 18.46 and 17.58 and 17.84 and 14.88 and 18.39 and 18.34 and 18.22
- Body Weight D13 (IMI + 3 mg/kg, Day 13, individual animals, 3 mg/kg, in g (unit assumed)): 17.57 and 18.62 and 18.39 and 18.19 and 14.70 and 18.17 and 18.61 and 18.32
- Body Weight D14 (IMI + 3 mg/kg, Day 14, individual animals, 3 mg/kg, in g (unit assumed)): 17.89 and 18.64 and 18.56 and 18.40 and 15.26 and 17.85 and 18.49 and 18.20
- Body Weight D15 (IMI + 3 mg/kg, Day 15, individual animals, 3 mg/kg): 18.27 and 18.85 (2×) and 18.94 and 15.48 and 18.37 and 18.62 and 18.57
- MBWC D1-D8 (IMI + 3 mg/kg, body weight change Day 1 to Day 8 (before treatment), individual animals, 3 mg/kg): −1.63 and −1.41 and −0.78 and −1.46 and −1.35 and −0.86 and −1.12 and −2.53
- MBWC D8-D15 (IMI + 3 mg/kg, body weight change Day 8 to Day 15 (treatment period), individual animals, 3 mg/kg): 1.86 and 2.26 and 1.67 (2×) and 1.42 and 1.32 and 1.12 and 2.38
- PASI Scores (D8 (day treatment started), individual animals): 9 and 7 (4×) and 8 (2×) and 6
- PASI Scores (D9, individual animals): 8 and 5 (2×) and 7 and 6 (3×) and 4
- PASI Scores (D10, individual animals): 6 (2×) and 7 (2×) and 4 (4×)
- PASI Scores (D11, individual animals): 5 (4×) and 4 (4×)
- PASI Scores (D12, individual animals): 3 (4×) and 5 and 2 (2×) and 1
- PASI Scores (D13, individual animals): 1 (3×) and 0 (3×) and 2 (2×)
- PASI Scores (D14, individual animals): 2 and 0 (3×) and 1 (4×)
- PASI Scores (D15, individual animals): 1 (3×) and 0 (5×)
- Use Enrichment D1 (IMI-psoriasis model, D1, 3 mg/kg, per cage (two animals)): 4.0
- Use Enrichment D10 (IMI-psoriasis model, D10, 3 mg/kg, per cage (two animals)): 2.5 and 3.0 and 2.0
- Use Enrichment D11 (IMI-psoriasis model, D11, 3 mg/kg, per cage (two animals)): 3.5 and 4.0 and 3.0
- Use Enrichment D12 (IMI-psoriasis model, D12, 3 mg/kg, per cage (two animals)): 3.5 and 2.5 and 3.0
- Use Enrichment D13 (IMI-psoriasis model, D13, 3 mg/kg, per cage (two animals)): 4.0
- Use Enrichment D14 (IMI-psoriasis model, D14, 3 mg/kg, per cage (two animals)): 4.0
- Use Enrichment D15 (IMI-psoriasis model, D15, 3 mg/kg, per cage (two animals)): 4.0
- Number Licking [1]: 4 (2×) and 5 and 1 and 2 (2×) and 3 (2×)
- Number Licking + Scratching [1]: 5 and 6 and 1 and 2 (2×) and 7 and 3 (2×)
- Number Scratching [1]: 1 (2×) and 0 (5×) and 3
- Distance Traveled [2]: 10 m and 13 m and 8 m and 11 m (2×) and 17 m and 9 m and 15 m
- Number Rearings [2]: 20 and 58 and 21 and 42 and 81 and 13 and 60 and 12
- Use Enrichment Mean D1-D8 (IMI-psoriasis model, mean D1-D8, 3 mg/kg, per cage (two animals)): 2.50 and 2.00
- Use Enrichment Mean D8-D15 (IMI-psoriasis model, mean D8-D15, 3 mg/kg, per cage (two animals)): 3.07 and 3.36 and 2.93
- Spleen Weight [3]: 180.97 and 286.06 and 424.79 and 208.70 and 207.33 and 227.51 and 223.09 and 221.44
- Spleen Weight Ratio [3]: 990.53 and 1517.56 and 2242.82 and 1107.16 and 1339.34 and 1238.49 and 1198.12 and 1192.46
- Mean scores of the presence of erythema on the skin of animals at the area of induction of psoriasis [4]: 2.1 ± 0.1
- Mean scores of the presence of induration on the skin of animals at the area of induction of psoriasis [4]: 3.0 ± 0.0
- Mean scores of the presence of peeling on the skin of animals at the area of induction of psoriasis [4]: 2.5 ± 0.2
- Mean scores of the presence of erythema on the skin of animals at the area of induction of psoriasis (IMI + 3 mg/kg, D9): 1.5 ± 0.2
- Mean scores of the presence of induration on the skin of animals at the area of induction of psoriasis (IMI + 3 mg/kg, D9): 2.3 ± 0.2
- Mean scores of the presence of peeling on the skin of animals at the area of induction of psoriasis (IMI + 3 mg/kg, D9): 2.1 ± 0.2
- Mean scores of the presence of erythema on the skin of animals at the area of induction of psoriasis (IMI + 3 mg/kg, D10): 1.6 ± 0.2
- Mean scores of the presence of induration on the skin of animals at the area of induction of psoriasis (IMI + 3 mg/kg, D10): 2.0 ± 0.2
- Mean scores of the presence of peeling on the skin of animals at the area of induction of psoriasis (IMI + 3 mg/kg, D10): 1.6 ± 0.3
- Mean scores of the presence of erythema on the skin of animals at the area of induction of psoriasis (IMI + 3 mg/kg, D11): 1.4 ± 0.2
- Mean scores of the presence of induration on the skin of animals at the area of induction of psoriasis (IMI + 3 mg/kg, D11): 1.8 ± 0.2
- Mean scores of the presence of peeling on the skin of animals at the area of induction of psoriasis (IMI + 3 mg/kg, D11): 1.4 ± 0.2
- Mean scores of the presence of erythema on the skin of animals at the area of induction of psoriasis (IMI + 3 mg/kg, D12): 0.75 ± 0.2
- Mean scores of the presence of induration on the skin of animals at the area of induction of psoriasis (IMI + 3 mg/kg, D12): 0.9 ± 0.2
- Mean scores of the presence of peeling on the skin of animals at the area of induction of psoriasis (IMI + 3 mg/kg, D12): 1.1 ± 0.1
- Mean scores of the presence of erythema on the skin of animals at the area of induction of psoriasis (IMI + 3 mg/kg, D13): 0.3 ± 0.2
- Mean scores of the presence of induration on the skin of animals at the area of induction of psoriasis (IMI + 3 mg/kg, D13): 0.4 ± 0.2
- Mean scores of the presence of peeling on the skin of animals at the area of induction of psoriasis (IMI + 3 mg/kg, D13): 0.3 ± 0.2
- Mean scores of the presence of erythema on the skin of animals at the area of induction of psoriasis (IMI + 3 mg/kg, D14): 0.0 ± 0.0
- Mean scores of the presence of induration on the skin of animals at the area of induction of psoriasis (IMI + 3 mg/kg, D14): 0.4 ± 0.2
- Mean scores of the presence of peeling on the skin of animals at the area of induction of psoriasis (IMI + 3 mg/kg, D14): 0.4 ± 0.2
- Mean scores of the presence of erythema on the skin of animals at the area of induction of psoriasis (IMI + 3 mg/kg, D15): 0.1 ± 0.1
- Mean scores of the presence of induration on the skin of animals at the area of induction of psoriasis (IMI + 3 mg/kg, D15): 0.1 ± 0.1
- Mean scores of the presence of peeling on the skin of animals at the area of induction of psoriasis (IMI + 3 mg/kg, D15): 0.1 ± 0.1
- Mean PASI Scores in IMI-Psoriasis Model (mice, IMI + 3 mg/kg, D8 (before start of treatment)): 7.4 ± 0.3
- Mean PASI Scores in IMI-Psoriasis Model (mice, IMI + 3 mg/kg, D9): 5.9 ± 0.4
- Mean PASI Scores in IMI-Psoriasis Model (mice, IMI + 3 mg/kg, D10): 5.3 ± 0.5
- Mean PASI Scores in IMI-Psoriasis Model (mice, IMI + 3 mg/kg, D11): 4.5 ± 0.2
- Mean PASI Scores in IMI-Psoriasis Model (mice, IMI + 3 mg/kg, D12): 2.8 ± 0.4
- Mean PASI Scores in IMI-Psoriasis Model (mice, IMI + 3 mg/kg, D13): 0.9 ± 0.3
- Mean PASI Scores in IMI-Psoriasis Model (mice, IMI + 3 mg/kg, D14): 0.8 ± 0.3
- Mean PASI Scores in IMI-Psoriasis Model (mice, IMI + 3 mg/kg, D15): 0.4 ± 0.2
